According to patent US11596644B2, “Method for treating post-prandial hypoglycemia” (AVOLYNT, priority 2018, dated 2023):
Marks after values point to notes of the source that are not given here.

How the values were obtained:
[1] = tested on: healthy adult male volunteers; assay: Repeat dose study in humans, pharmacodynamic parameters after meals; assay type: in vivo, human; settings: repeat dosing; for AUC 0-5 GIP / AUC 0-5 GLP-1 (active) / AUC 0-5 Insulin / AUC 0-5 glucose / GIP (peak) / GLP-1 (active) (peak) / Glucose (peak) / Insulin (peak) / Time (h) to peak, GIP / Time (h) to peak, GLP-1 (active) / Time (h) to peak, glucose / Time (h) to peak, insulin: Day 3 after breakfast
Description: Repeat dose study in humans. Oral doses of 2 mg, 5 mg, 10 mg, 20 mg, of mizagliflozin, placebo or miglitol 50 mg per dose three times daily to healthy adult male volunteers by a randomized, placebo-controlled, parallel-group, double-blind comparison method. The dose was orally administered with approximately 150 mL of water once daily immediately before breakfast on Days 1 and 13, and three times daily immediately before every meal on Days 3 to 12.
Changes in the following parameters and ΔAUC from 0 to t* hours after breakfast, lunch, and evening meal were measured: Blood glucose level, Serum insulin concentration, Blood active GLP-1 concentration, and Blood total GIP concentration, where t=0.5, 1, 1.5, 2, and 3 (t=0.5, 1, 1.5, 2, 3, and 5 only after breakfast).
In the miglitol group, hyperglycemia was suppressed after breakfast, lunch, and evening meal, as compared to the placebo group. […] These pharmacodynamic effects more or less persisted during 10-day repeated administration. There was no correlation between plasma mizagliflozin concentration and the pharmacodynamic effects. Measurements in Tables 5-8 were performed on Day 3 after breakfast.

[2] = tested on: STZ-induced diabetic rats; assay: OGTT in STZ-induced diabetic rats (Example 8); assay type: in vivo, rat; settings: for Plasma glucose 0 hr: before dosing; for Plasma glucose 0 hr / Plasma glucose 0.5 hr / Plasma glucose 1 hr / Plasma glucose 2 hr / Plasma glucose 3 hr / ΔAUC (0-1) / ΔAUC (0-1) (% of Control): glucose 2 g/kg, mean ± S.E.M.
Description: (§1) Study in diabetic rats with glucose. Diabetic rats, induced by intravenous injection of streptozotocin (STZ; 40 mg/kg), were used to determining plasma glucose concentration (PG) 1 hr after oral glucose tolerance test (OGTT). […] Blood was collected via the caudal artery immediately before dosing and 0.5, 1, 2, and 3 hr after dosing. The glucose concentration measurement in plasma used Glucose CII-Test Wako kit (Wako Pure Chemicals Industries, Ltd., Osaka, Japan). The variables used for efficacy assessment were the measurement values of the plasma glucose concentration and the area under the curve for plasma glucose concentration through 1 hr after loading (ΔAUC0-1 hr). The ΔAUC0-1 hr for plasma glucose was calculated based on the trapezoid method using the change of plasma glucose concentrations from pre-value (0 hr).

[3] = tested on: STZ-induced diabetic rats; assay: Oral mixed-carbohydrate tolerance test (OMCTT) in STZ-induced diabetic rats (Example 9); assay type: in vivo, rat; settings: for Plasma glucose 0 hr: before dosing; for Plasma glucose 0 hr / Plasma glucose 0.5 hr / Plasma glucose 1 hr / Plasma glucose 2 hr / Plasma glucose 3 hr / ΔAUC (0-1) / ΔAUC (0-1) (% of Control): mixed-carbohydrate load, mean ± S.E.M.
Description: as §1, with “with mixed carbohydrates.” for “with glucose.”, “oral mixed-carbohydrate” for “oral glucose”, “test (OMCTT).” for “test (OGTT).”

Cc1cc(OCCCNCC(C)(C)C(N)=O)ccc1Cc1c(O[C@@H]2O[C@H](CO)[C@@H](O)[C@H](O)[C@H]2O)n[nH]c1C(C)C [mizagliflozin, 3-(3-{4-[3-(β-D-glucopyranosyloxy)-5-isopropyl-1H-pyrazol-4-ylmethyl-]-3-methylphenoxy}propylamino)-2,2-dimethylpropionamide]
AUC 0-5 GIP ([1]; 2 mg per dose): 1096.21 pg·h/mL | AUC 0-5 GLP-1 (active) ([1]; 2 mg per dose): 21.21 pmol·h/L | AUC 0-5 Insulin ([1]; 2 mg per dose): 166.61 uU*h/ml | AUC 0-5 glucose ([1]; 2 mg per dose): 550.6 mg·h/dL | GIP (peak) ([1]; 2 mg per dose): 285 pg/mL | GLP-1 (active) (peak) ([1]; 2 mg per dose): 5.98 pmol/L | Glucose (peak) ([1]; 2 mg per dose): 131.6 mg/dL | Insulin (peak) ([1]; 2 mg per dose): 58.05 uU/ml | Time (h) to peak, GIP ([1]; 2 mg per dose): 3 h | Time (h) to peak, GLP-1 (active) ([1]; 2 mg per dose): 0.5 h | Time (h) to peak, glucose ([1]; 2 mg per dose): 1 h | Time (h) to peak, insulin ([1]; 2 mg per dose): 1.5 h | AUC 0-5 GIP ([1]; 5 mg per dose): 1057.89 pg·h/mL | AUC 0-5 GLP-1 (active) ([1]; 5 mg per dose): 22.36 pmol·h/L | AUC 0-5 Insulin ([1]; 5 mg per dose): 146.08 uU*h/ml | AUC 0-5 glucose ([1]; 5 mg per dose): 524.6 mg·h/dL | GIP (peak) ([1]; 5 mg per dose): 280.88 pg/mL | GLP-1 (active) (peak) ([1]; 5 mg per dose): 5.95 pmol/L | Glucose (peak) ([1]; 5 mg per dose): 118.6 mg/dL | Insulin (peak) ([1]; 5 mg per dose): 44 uU/ml | Time (h) to peak, GIP ([1]; 5 mg per dose): 3 h | Time (h) to peak, GLP-1 (active) ([1]; 5 mg per dose): 0.5 h | Time (h) to peak, glucose ([1]; 5 mg per dose): 1.5 h | Time (h) to peak, insulin ([1]; 5 mg per dose): 2 h | AUC 0-5 GIP ([1]; 10 mg per dose): 839.7 pg·h/mL | AUC 0-5 GLP-1 (active) ([1]; 10 mg per dose): 41.12 pmol·h/L | AUC 0-5 Insulin ([1]; 10 mg per dose): 176.7 uU*h/ml | AUC 0-5 glucose ([1]; 10 mg per dose): 541.3 mg·h/dL | GIP (peak) ([1]; 10 mg per dose): 240.75 pg/mL | GLP-1 (active) (peak) ([1]; 10 mg per dose): 10.01 pmol/L | Glucose (peak) ([1]; 10 mg per dose): 121.3 mg/dL | Insulin (peak) ([1]; 10 mg per dose): 55.13 uU/ml | Time (h) to peak, GIP ([1]; 10 mg per dose): 3 h | Time (h) to peak, GLP-1 (active) ([1]; 10 mg per dose): 0.5 h | Time (h) to peak, glucose ([1]; 10 mg per dose): 1.5 h | Time (h) to peak, insulin ([1]; 10 mg per dose): 1 h | AUC 0-5 GIP ([1]; 20 mg per dose): 755.01 pg·h/mL | AUC 0-5 GLP-1 (active) ([1]; 20 mg per dose): 24.74 pmol·h/L | AUC 0-5 Insulin ([1]; 20 mg per dose): 142.25 uU*h/ml | AUC 0-5 glucose ([1]; 20 mg per dose): 522.4 mg·h/dL | GIP (peak) ([1]; 20 mg per dose): 217.15 pg/mL | GLP-1 (active) (peak) ([1]; 20 mg per dose): 6.01 pmol/L | Glucose (peak) ([1]; 20 mg per dose): 121 mg/dL | Insulin (peak) ([1]; 20 mg per dose): 47.69 uU/ml | Time (h) to peak, GIP ([1]; 20 mg per dose): 3 h | Time (h) to peak, GLP-1 (active) ([1]; 20 mg per dose): 0.5 h | Time (h) to peak, glucose ([1]; 20 mg per dose): 1.5 h | Time (h) to peak, insulin ([1]; 20 mg per dose): 1.5 h | active GLP-1 concentration ([1]; healthy adult male volunteers): a tendency toward increase in active GLP-1 concentration was seen | hyperglycemia after breakfast, lunch, and evening meal ([1]; healthy adult male volunteers): suppressed after breakfast, lunch, and evening meal on a level equivalent to the miglitol group | insulin secretion ([1]; healthy adult male volunteers): inhibition of insulin secretion along with inhibition of hyperglycemia was seen the same as in the miglitol group | total GIP concentration ([1]; healthy adult male volunteers): increase in total GIP concentration was seen on a level equivalent to the miglitol group | total GLP-1 concentration ([1]; healthy adult male volunteers): increase in total GLP-1 concentration was seen on a level equivalent to the miglitol group | Plasma glucose 0 hr ([2]; 0.03 mg/kg oral): 128 ± 10 mg/dL | Plasma glucose 0.5 hr ([2]; 0.03 mg/kg oral): 356 ± 25 mg/dL | Plasma glucose 1 hr ([2]; 0.03 mg/kg oral): 371 ± 33 mg/dL | Plasma glucose 2 hr ([2]; 0.03 mg/kg oral): 172 ± 29 mg/dL | Plasma glucose 3 hr ([2]; 0.03 mg/kg oral): 91 ± 12 mg/dL | ΔAUC (0-1) ([2]; 0.03 mg/kg oral): 174 ± 17 mg·h/dL | ΔAUC (0-1) (% of Control) ([2]; 0.03 mg/kg oral): 90 ± 9 % of Control | Plasma glucose 0 hr ([2]; 0.1 mg/kg oral): 120 ± 12 mg/dL | Plasma glucose 0.5 hr ([2]; 0.1 mg/kg oral): 262 ± 27^y mg/dL | Plasma glucose 1 hr ([2]; 0.1 mg/kg oral): 305 ± 43 mg/dL | Plasma glucose 2 hr ([2]; 0.1 mg/kg oral): 238 ± 53 mg/dL | Plasma glucose 3 hr ([2]; 0.1 mg/kg oral): 137 ± 26 mg/dL | ΔAUC (0-1) ([2]; 0.1 mg/kg oral): 117 ± 18^x mg · dL^−1 · hr | ΔAUC (0-1) (% of Control) ([2]; 0.1 mg/kg oral): 60 ± 9^x % of Control | PG elevation after glucose administration ([2]; 0.03 and 0.1 mg/kg oral, OGTT 2 g/kg): inhibited PG elevation after glucose administration dose dependently | Plasma glucose 0 hr ([3]; 0.03 mg/kg oral): 120 ± 9 mg/dL | Plasma glucose 0.5 hr ([3]; 0.03 mg/kg oral): 289 ± 43 mg/dL | Plasma glucose 1 hr ([3]; 0.03 mg/kg oral): 245 ± 28 mg/dL | Plasma glucose 2 hr ([3]; 0.03 mg/kg oral): 129 ± 4 mg/dL | Plasma glucose 3 hr ([3]; 0.03 mg/kg oral): 106 ± 4 mg/dL | ΔAUC (0-1) ([3]; 0.03 mg/kg oral): 116 ± 25 mg·h/dL | ΔAUC (0-1) (% of Control) ([3]; 0.03 mg/kg oral): 71 ± 15 % of Control | Plasma glucose 0 hr ([3]; 0.1 mg/kg oral): 128 ± 13 mg/dL | Plasma glucose 0.5 hr ([3]; 0.1 mg/kg oral): 261 ± 44 mg/dL | Plasma glucose 1 hr ([3]; 0.1 mg/kg oral): 234 ± 37 mg/dL | Plasma glucose 2 hr ([3]; 0.1 mg/kg oral): 136 ± 16 mg/dL | Plasma glucose 3 hr ([3]; 0.1 mg/kg oral): 98 ± 8 mg/dL | ΔAUC (0-1) ([3]; 0.1 mg/kg oral): 93 ± 20 mg·h/dL | ΔAUC (0-1) (% of Control) ([3]; 0.1 mg/kg oral): 57 ± 12 % of Control | PG elevation after glucose administration ([3]; 0.03 and 0.1 mg/kg oral, OMCTT): inhibited PG elevation after glucose administration dose dependently
